Structures can show the parent of a compound that is named as a salt.
Tests used:
[1] = PDE10a-perfused brain permeability study (plasma and brain concentrations); settings: male, Sprague-Dawley, rat; for Kp at 2 h: brain/plasma
Protocol: Drug administration by oral gavage, subcutaneous injection or intravenous was carried out using male Sprague Dawley rats under IACUC protocol (SH-MET3010). Male Sprague Dawley rats (Charles River) ˜300-350 g were maintained on a 4% standard rodent diet (Test Diet 5001). They are allowed ad libitum access to water and food. Room temperature was maintained at 64° F. and humidity at 30-70%.
Three animals per compound were provided a dose of 2 mg/mL in 20% HpbCD/Tris pH 8 by tail i.v. or 30 mpk p.o. or s.c. in 20% HpbCD/Tris pH 8, with PDE10a antagonists. A first blood sample was collected at 30 min via retro-orbital sinus (anesthetic by 70% CO2/30% O2) into heparinzed plasma separator tubes. The blood was centrifuged and 100 uL plasma was placed into a 96 well plate and saved on dry ice.
After the 120 min, the final blood sample was collected via retro-orbital sinus under anesthesia by IP 0.5 cc injection of a 4/1 mixture of Ketaset: AnaSed [(prepared 10 mL Ketaset (100 mg/mL Ketamine)+2.5 mL AnaSed (20 mg/mL Xylazine)]. The rats were then perfused with 400 mL heparinized saline (10,000 units/L) through the left ventricle of the heart; the brains were then removed (not including the medulla), weighed and homogenized in PBS (4 mL/g tissue). The samples were stored at −80° C. and submitted for chemical analysis of blood and brain concentrations. Endpoints of sample analysis consists of the plasma concentrations at 30 and 120 min, plus brain concentrations at 120 min.

[2] = target: Rat recombinant PDE10a (rPDE10a) (Rattus norvegicus (Rat), UniProt Q9QYJ6); experiment: In vitro assay PDE10a (rat recombinant PDE10a, SPA); type: biochemical; settings: 60 nM cAMP, 60 min at rt, read-out: rPDE10a2 IC50
In short: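 Rat PDE10a expressed in Sf9 cells (baculovirus) and Ni-sepharose purified. Incubated with compound for 60 min at rt in 50 mM Tris pH 7.8, 8.3 mM MgCl2, 1.7 mM EGTA with 60 nM cAMP plus 0.008 μCi ^3H-cAMP (final), 1% DMSO. Read-out by PDE SPA bead scintillation counting (cpm), no-enzyme blank.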

[3] = target: Human recombinant PDE10A2 (Homo sapiens (Human), UniProt Q9Y233); experiment: In vitro hPDE10a (human recombinant PDE10A2, scintillation proximity assay); type: biochemical; settings: human recombinant PDE10A2, 60 nM cAMP, 60 min at room temperature; read-out: hPDE10a2 IC50
Chain of Human recombinant PDE10A2 (Q9Y233 267-1055): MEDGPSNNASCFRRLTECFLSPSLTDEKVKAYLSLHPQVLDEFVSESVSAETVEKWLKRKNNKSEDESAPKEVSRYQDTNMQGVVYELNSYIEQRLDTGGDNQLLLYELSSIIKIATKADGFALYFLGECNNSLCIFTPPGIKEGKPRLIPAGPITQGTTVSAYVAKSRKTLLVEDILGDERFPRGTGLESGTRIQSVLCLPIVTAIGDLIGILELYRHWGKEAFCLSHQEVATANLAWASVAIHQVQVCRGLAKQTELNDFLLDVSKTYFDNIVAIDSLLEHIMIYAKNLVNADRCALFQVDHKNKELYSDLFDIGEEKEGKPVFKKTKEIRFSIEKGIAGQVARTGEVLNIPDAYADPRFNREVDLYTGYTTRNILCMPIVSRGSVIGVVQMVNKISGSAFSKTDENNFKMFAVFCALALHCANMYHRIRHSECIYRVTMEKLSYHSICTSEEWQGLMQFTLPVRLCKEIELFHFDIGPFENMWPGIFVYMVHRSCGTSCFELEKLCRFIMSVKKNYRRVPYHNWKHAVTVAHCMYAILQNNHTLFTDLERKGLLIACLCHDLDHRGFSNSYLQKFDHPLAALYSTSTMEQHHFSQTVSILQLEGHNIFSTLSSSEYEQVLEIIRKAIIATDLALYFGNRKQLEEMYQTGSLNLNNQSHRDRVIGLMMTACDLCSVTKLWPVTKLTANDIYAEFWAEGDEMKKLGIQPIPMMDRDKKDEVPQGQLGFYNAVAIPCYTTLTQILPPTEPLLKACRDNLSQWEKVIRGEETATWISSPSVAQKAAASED

Chain of Rat recombinant PDE10a (rPDE10a) (Q9QYJ6 whole entry): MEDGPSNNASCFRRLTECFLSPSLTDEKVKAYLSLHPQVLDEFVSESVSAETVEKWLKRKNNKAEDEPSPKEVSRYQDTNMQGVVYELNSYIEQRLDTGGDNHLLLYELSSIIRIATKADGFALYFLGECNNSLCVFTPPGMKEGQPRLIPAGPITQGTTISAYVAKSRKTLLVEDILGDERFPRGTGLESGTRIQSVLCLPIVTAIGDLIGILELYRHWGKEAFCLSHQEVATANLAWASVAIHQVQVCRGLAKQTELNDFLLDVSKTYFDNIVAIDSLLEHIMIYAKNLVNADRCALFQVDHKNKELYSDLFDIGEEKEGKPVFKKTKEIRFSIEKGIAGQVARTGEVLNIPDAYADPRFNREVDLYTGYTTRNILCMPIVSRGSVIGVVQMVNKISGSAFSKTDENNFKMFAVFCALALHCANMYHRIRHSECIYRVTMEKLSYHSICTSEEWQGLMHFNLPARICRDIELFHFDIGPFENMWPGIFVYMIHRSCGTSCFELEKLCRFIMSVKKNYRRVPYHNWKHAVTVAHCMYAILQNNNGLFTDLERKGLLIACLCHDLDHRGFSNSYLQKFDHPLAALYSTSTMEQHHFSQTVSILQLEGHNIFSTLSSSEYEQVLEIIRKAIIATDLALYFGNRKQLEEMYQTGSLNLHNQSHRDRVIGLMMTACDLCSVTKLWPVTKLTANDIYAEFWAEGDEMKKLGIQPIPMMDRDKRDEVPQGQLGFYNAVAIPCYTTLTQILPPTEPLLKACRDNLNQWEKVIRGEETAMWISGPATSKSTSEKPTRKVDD

SMILES	concentration at 2 h ([1]; brain) [ng/g]	Kp at 2 h [1]	concentration at 2 h ([1]; plasma) [ng/mL]	IC50 [2] [nM]	IC50 [3] [nM]
O=C(O)C1CCN(c2ccc(-c3cnc(N4CCOCC4)c4nc(/C=C/c5ccc6ccccc6n5)cn34)cc2)CC1 [Cpd 14, (E)-1-(4-(8-Morpholino-2-(2-(quinolin-2-yl)vinyl)imidazo[1,2-a]pyrazin-5-yl)phenyl)piperidine-4-carboxylic acid trifluoroacetic acid salt]	35.5	0.07	503	11	6
O=C(O)c1ccc(-c2cnc(N3CCOCC3)c3nc(/C=C/c4ccc5ccccc5n4)cn23)cc1 [Cpd 16, (E)-4-(8-morpholino-2-(2-(quinolin-2-yl)vinyl)imidazo[1,2-a]pyrazin-5-yl)benzoic acid trifluoroacetic acid salt]	0	0	142	–	–
O=c1[nH]nnn1-c1ccc(-c2cnc(N3CCOCC3)c3nc(/C=C/c4ccc5ccccc5n4)cn23)cc1 [Cpd 55, (E)-1-(4-(8-Morpholino-2-(2-(quinolin-2-yl)vinyl)imidazo[1,2-a]pyrazin-5-yl)phenyl)-1H-tetrazol-5(4H)-one]	0	0	118	–	–
CC(=O)NS(=O)(=O)c1ccc(-c2cnc(N3CCOCC3)c3nc(/C=C/c4ccc5ccccc5n4)cn23)cc1 [Cpd 69, (E)-N-(4-(8-Morpholino-2-(2-(quinolin-2-yl)vinyl)imidazo[1,2-a]pyrazin-5-yl)phenylsulfonyl)acetamide trifluoroacetic acid salt]	36.1	1	73.6	4	4
O=C(O)CNc1ccc(-c2cnc(N3CCOCC3)c3nc(COc4ccc5ccccc5n4)cn23)cn1 [Cpd 107, 2-((5-(8-Morpholino-2-((quinolin-2-yloxy)methyl)imidazo[1,2-a]pyrazin-5-yl)pyridin-2-yl)amino)acetic acid trifluoroacetic acid salt]	0	0	22.5	2	2
NS(=O)(=O)N1CCC(c2cnc(N3CCOCC3)c3nc(COc4ccc5ccccc5n4)cn23)CC1 [Cpd 109, 4-(8-Morpholino-2-((quinolin-2-yloxy)methyl)imidazo[1,2-a]pyrazin-5-yl)piperidine-1-sulfonamide trifluoroacetic acid salt]	8.15	0.03	226	87	110
O=C(O)CN1CCC(c2cnc(N3CCOCC3)c3nc(COc4ccc5ccccc5n4)cn23)CC1 [Cpd 110, 2-(4-(8-Morpholino-2-((quinolin-2-yloxy)methyl)imidazo[1,2-a]pyrazin-5-yl)piperidin-1-yl)acetic acid trifluoroacetic acid salt]	0	0	4.63	288	407
O=C(Nc1cn2c(-c3ccc(N4CCNCC4)nc3)cnc(N3CCOCC3)c2n1)c1ccc2ccccc2n1 [Cpd 125, N-(8-Morpholino-5-(6-(piperazin-1-yl)pyridin-3-yl)imidazo[1,2-a]pyrazin-2-yl)quinoline-2-carboxamide hydrochloric acid salt]	54.9	1.2	45.9	339	309
c1ccc2nc(OCc3cn4c(-c5ccc(N6CCNCC6)nc5)cnc(C5CCOCC5)c4n3)ccc2c1 [compound 83, 2-((5-(6-(piperazin-1-yl)pyridin-3-yl)-8-(tetrahydro-2H-pyran-4-yl)imidazo[1,2-a]pyrazin-2-yl)methoxy)quinoline trifluoroacetic acid salt]	–	–	–	269	316

Further lines, results first:

concentration at 2 h ([1]; brain) [ng/g]	Kp at 2 h [1]	concentration at 2 h ([1]; plasma) [ng/mL]	IC50 [2] [nM]	IC50 [3] [nM]	SMILES
0	0	2	< 1	–	CC(=O)NS(=O)(=O)c1ccc(-c2cnc(N3CCOCC3)c3nc(CCc4ccc5ccccc5n4)cn23)cc1 [Cpd 63, N-((4-(8-Morpholino-2-(2-(quinolin-2-yl)ethyl)imidazo[1,2-a]pyrazin-5-yl)phenyl)sulfonyl)acetamide]
0	0	58	< 1	1	O=c1[nH]c(-c2ccc(-c3cnc(N4CCOCC4)c4nc(CCc5ccc6ccccc6n5)cn34)cn2)no1 [Cpd 74, 3-[5-[8-(Morpholin-4-yl)-2-[2-(quinolin-2-yl)ethyl]imidazo[1,2-a]pyrazin-5-yl]pyridin-2-yl]-4,5-dihydro-1,2,4-oxadiazol-5-one]
0	0	115	3	2	CS(=O)(=O)NC(=O)c1ccc(-c2cnc(N3CCOCC3)c3nc(COc4ccc5ccccc5n4)cn23)cn1 [Cpd 76, N-Methanesulfonyl-5-[8-(morpholin-4-yl)-2-[(quinolin-2-yloxy)methyl]imidazo[1,2-a]pyrazin-5-yl]pyridine-2-carboxamide]
112	0.55	209	3	12	C(=C\c1cn2c(-c3ccc(-c4nnc[nH]4)nc3)cnc(N3CCOCC3)c2n1)/c1ccc2ccccc2n1 [Cpd 91, (E)-4-(5-(6-(2H-1,2,4-Triazol-3-yl)pyridin-3-yl)-2-(2-(quinolin-2-yl)vinyl)imidazo[1,2-a]pyrazin-8-yl)morpholine]
78.3	0.77	135	3	6	c1ccc2nc(OCc3cn4c(-c5ccc(Sc6cnn[nH]6)nc5)cnc(N5CCOCC5)c4n3)ccc2c1 [Cpd 92, 4-(5-(6-((1H-1,2,3-Triazol-5-yl)thio)pyridin-3-yl)-2-((quinolin-2-yloxy)methyl)imidazo[1,2-a]pyrazin-8-yl)morpholine]
0	0	98	10	13	C(=C\c1cn2c(-c3cnc4nc[nH]c4c3)cnc(N3CCOCC3)c2n1)/c1ccc2ccccc2n1 [Cpd 93, (E)-4-(5-(3H-Imidazo[4,5-b]pyridin-6-yl)-2-(2-(quinolin-2-yl)vinyl)imidazo[1,2-a]pyrazin-8-yl)morpholine]
0	0	113	< 1	5	O=c1[nH]c(-c2ccc(-c3cnc(N4CCOCC4)c4nc(/C=C/c5ccc6ccccc6n5)cn34)cn2)no1 [Cpd 95, (E)-3-(5-(8-Morpholino-2-(2-(quinolin-2-yl)vinyl)imidazo[1,2-a]pyrazin-5-yl)pyridin-2-yl)-1,2,4-oxadiazol-5-ol]
0	0	84	1	1	c1ccc2nc(OCc3cn4c(-c5ccc(-c6nnn[nH]6)nc5)cnc(N5CCOCC5)c4n3)ccc2c1 [Cpd 97, 4-(5-(6-(1H-Tetrazol-5-yl)pyridin-3-yl)-2-((quinolin-2-yloxy)methyl)imidazo[1,2-a]pyrazin-8-yl)morpholine]
108	2.99	53.8	26	54	c1ccc2nc(OCc3cn4c(-c5ccc(N6CCNCC6)nc5)cnc(-c5ccc6nc[nH]c6c5)c4n3)ccc2c1 [Cpd 119, 2-((8-(1H-Benzo[d]imidazol-6-yl)-5-(6-(piperazin-1-yl)pyridin-3-yl)imidazo[1,2-a]pyrazin-2-yl)methoxy)quinoline trifluoroacetic acid salt]
81.5	1.55	55.1	83	59	c1ccc2nc(OCc3cn4c(-c5cnc(N6CCNCC6)nc5)cnc(N5CCOCC5)c4n3)ccc2c1 [Cpd 121, 4-(5-(2-(Piperazin-1-yl)pyrimidin-5-yl)-2-((quinolin-2-yloxy)methyl)imidazo[1,2-a]pyrazin-8-yl)morpholine methane sulfonic acid salt]
98.2	–	35.6	8	–	Nc1ccc(-c2cnc(N3CCOCC3)c3nc(COc4ccc5ccccc5n4)cn23)cn1 [Cpd 122, 5-(8-Morpholino-2-((quinolin-2-yloxy)methyl)imidazo[1,2-a]pyrazin-5-yl)pyridin-2-amine methane sulfonic acid salt]
49.3	2.26	22.4	13	34	c1ccc2nc(OCc3cn4c(-c5ccc(N6CCNCC6)nc5)cnc(N5CCOCC5)c4n3)ccc2c1 [Cpd 126, 4-(5-(6-(piperazin-1-yl)pyridin-3-yl)-2-((quinolin-2-yloxy)methyl)imidazo[1,2-a]pyrazin-8-yl)morpholine methane sulfonic acid salt]
1.85	0.58	16.4	31	30	Cc1ccc(-c2cnc(N3CCOCC3)c3nc(COc4ccc5ccccc5n4)cn23)cn1 [Cpd 128, 4-(5-(6-Methylpyridin-3-yl)-2-((quinolin-2-yloxy)methyl)imidazo[1,2-a]pyrazin-8-yl)morpholine methane sulfonic acid salt]
